In brackets after ≈: the same amount, converted by molar mass. Where two headings read alike, the source gives them in different places.
Key:
E. coli R477/100 = assay: Antibacterial activity MIC, double-microdilution; format: cell-based, Escherichia coli; conditions: Escherichia coli
[1] = Cell toxicity LC50 in HFF cells; format: cell-based; conditions: human, read-out: Cell toxicity LC50 HFF
Procedure: (§1) In order to ensure suitable cell viability for each of the tested compounds at the concentrations tested, cell toxicity was evaluated for each compound by measuring the half-maximal-lethal concentration value (LC50 values) in HEK-293 and HFF (human foreskin fibroblasts) cells.
(§2) The percentages of cell viability were calculated as the ratio between the numbers of living cells in cultures grown in the presence of the tested compounds, versus cultures grown under the identical protocol but without the tested compound. The results represent averages of at least three independent experiments.
(§3) The half-maximal lethal concentration (LC50) values were obtained from fitting concentration-response curves to the data of at least three independent experiments, using GraFit 5 software.

human fibroblast cells = conditions: background; cited from earlier work
B. subtilis ATCC6633 = assay: Antibacterial activity MIC, double-microdilution; format: cell-based, Bacillus subtilis; conditions: Bacillus subtilis
[2] = system: nonsense mutation constructs R3X, R245X, G542X, W1282X, Q70X, R3381X (PCDH15, CFTR, IDUA, Dystrophin); assay: In vitro stop codon readthrough assay, p2Luc dual luciferase, TNT reticulocyte lysate; format: biochemical; conditions: cell-free, mutations tested; comparison in words from FIGS. 2, 3, 5-7
Description: DNA fragments derived from PCDH15, CFTR, Dystrophin and IDUA cDNAs, including the tested nonsense mutation or the corresponding wild type (wt) codon, and four to six upstream and downstream flanking codons were created by annealing following pairs of complementary oligonucleotides:
The fragments were inserted in frame into the polylinker of the p2Luc plasmid between either BamHI and SacI (p.R3X and p.R245X), or SalI and SacI (all the rest) restriction sites.
For the in vitro readthrough assays, the obtained plasm ids, with addition of the tested aminoglycosides were transcribed and translated using the TNT Reticulocyte Lysate Quick Coupled Transcription/Translation System. Luciferase activity was determined after 90 minutes of incubation at 30° C., using the Dual Luciferase Reporter Assay System (Promega™).
Initially, the influence of the chiral C5″-methyl group on readthrough potential was evaluated on the pseudo-trisaccharides NB118 and NB119 by using a dual luciferase reporter assay system as described hereinabove. Briefly, DNA fragments were cloned between BamHI and SacI restriction sites of the p2luc vector and the obtained constructs were transcribed and translated using TNT quick coupled transcription/translation system. The amount of the translated products was evaluated using the dual luciferase reporter assay system and used to calculate the suppression level.

[3] = system: Eukaryotic system (eukaryotic cytoplasmic ribosome); assay: Eukaryotic translation inhibition, coupled transcription/translation, luciferase detection; format: biochemical
Description: Prokaryotic and eukaryotic translation inhibition was quantified in coupled transcription/translation assays by using active luciferase detection, performed as described hereinabove. […] In all biological tests, all tested aminoglycosides were in their sulfate salt forms. The concentrations reported refer to that of the free amine form of each aminoglycoside.
(§4) In all biological experiments conducted, all tested aminoglycosides were in their sulfate salt forms. The concentrations reported in Table 3 refer to that of the free amine form of each aminoglycoside. Prokaryotic and eukaryotic translation inhibition was quantified in coupled transcription/translation assays as previously described. The half-maximal concentration (IC50) values were obtained from fitting concentration response curves to the data of at least three independent experiments, using GraFit 5 software.

[4] = Cell toxicity LC50 in HEK-293 cells; format: cell-based; conditions: human, read-out: Cell toxicity LC50 HEK-293
Procedure: as §1, §2, §3

[5] = biological target: Prokaryotic system (prokaryotic ribosome); assay: Prokaryotic translation inhibition, coupled transcription/translation, luciferase detection; format: biochemical
Procedure: Prokaryotic and eukaryotic translation inhibition was quantified in coupled transcription/translation assays by using active luciferase detection, performed as described hereinabove. […] All the experiments were performed in duplicates and analogous results were obtained in three different experiments. In all biological tests, all tested aminoglycosides were in their sulfate salt forms. The concentrations reported refer to that of the free amine form of each aminoglycoside.
as §4, with “software. All the experiments were performed in duplicates and analogous results were obtained in three different experiments.” for “software.”

[6] = system: nonsense mutation constructs R3X, R245X, Q70X, W1282X, G542X in HEK-293 cells; assay: Ex vivo stop codon readthrough assay, p2luc constructs transfected to HEK-293 cells; format: cell-based, human; conditions: ex vivo in HEK-293, all the mutations tested, FIGS. 4, 8-10
Procedure: For the ex vivo readthrough assays, the constructs harboring the R3X, R245X, Q70X and W1282X mutations were transfected to HEK-293 cells with Lipofectamine 2000 (Invitrogen) and addition of the tested compounds was performed 6 hours post transfection. The cells were harvested following 16 hours of incubation with the tested aminoglycosides. Stop codon readthrough was calculated as previously described (see, Grentzmann, G. et al., RNA, 1998, 4, p. 479).
The constructs were transfected into a human embryonic kidney cell line (HEK-293) and incubated with varying concentrations of NB122, NB123, NB54 and the control drug gentamicin, and the results are presented in FIGS. 4A-D.
As described hereinabove, the constructs of p2luc plasmid harboring the R3X, R245X, Q70X and W1282X mutations were transfected to HEK-293 cells using lipofectamine2000 and the tested compounds were added 6 hours post transfection. Cells were harvested after 16 hours incubation and luciferase activity was determined using the dual luciferase reporter assay system (Promega™). Stop codon readthrough was calculated as described previously, and the results are averages of at least three independent experiments.

[7] = system: Prokaryotic system (prokaryotic ribosome); conditions: shown previously; cited from earlier work
[8] = Table 3, read-out: Translation Inhibition IC50^Euk
[9] = Table 3, read-out: Translation Inhibition IC50^Pro

| Structure (SMILES) | MIC (E. coli R477/100; R477/100, read-out: Antibacterial activity MIC E. coli R477/100) [µM] | CC50 ([1]; Table 2) [µM] | LD50 against human fibroblast cells (human fibroblast cells) [mg/mL] | MIC (B. subtilis ATCC6633; ATCC6633, read-out: Antibacterial activity MIC B. subtilis ATCC6633) [µM] | in vitro readthrough activity (stop codon suppression level) [2] | more selective to prokaryotic versus eukaryotic ribosome [3] [fold] | IC50 ([3]; Table 2, read-out: Translation Inhibition Eukaryotic System IC50) [µM] | IC50 [3, 8] [µM] | CC50 ([4]; Table 2) [µM] | IC50 ([5]; Table 2, read-out: Translation Inhibition Prokaryotic system IC50) [µM] | IC50 [5, 9] [µM] | MIC (E. coli R477/100; R477/100, Table 1, read-out: Antibacterial activity MIC E. coli R477/100) [µM] | CC50 ([1]; HFF (human foreskin fibroblast) cells, Table 1) [µM] | MIC (B. subtilis ATCC6633; ATCC6633, Table 1, free amine concentration, sulfate salts tested, read-out: Antibacterial activity MIC B. subtilis ATCC6633) [µM] | observed efficacy of aminoglycoside-induced readthrough, order [6] | weaker inhibitors of prokaryotic translation than gentamicin and paromomycin [7] | IC50 ([3]; Table 1, read-out: Translation inhibition Eukaryotic System IC50) [µM] | Prokaryotic versus Eukaryotic selectivity IC50^Euk/IC50^Pro ([3]; ratio of eukaryotic to prokaryotic translation inhibition IC50) | CC50 ([4]; HEK-293 cells, Table 1) [µM] | IC50 ([5]; Table 1, read-out: Translation inhibition Prokaryotic system IC50) [µM] |
| --- | --- | --- | --- | --- | --- | --- | --- | --- | --- | --- | --- | --- | --- | --- | --- | --- | --- | --- | --- | --- |
| CN[C@H]1[C@@H](O)C(OC2[C@H](N)CC(N)[C@@H](O[C@H]3OC(C(C)O)[C@@H](O)[C@H](O)C3N)[C@@H]2O)OCC1(C)O (stereo partly shown) [G418, reference compound] | 9 (≈ 4.47 µg/mL) | 1590 ± 140 | 0.04 | < 1.25 | the strongest readthrough inducer | 225 | 2 ± 0.3 | 2 | 1310 ± 60 | 0.009 ± 0.002 | 0.009 ± 0.002 |  |  |  |  |  |  |  |  |  |
| NCC[C@H](O)C(=O)N[C@@H]1CC(N)[C@@H](O[C@H]2OC(CO)[C@@H](O)[C@H](O)C2N)[C@H](O[C@@H]2O[C@H](CN)[C@H](O)C2O)C1O (stereo partly shown) [NB54, reference compound] |  |  |  |  |  |  |  | 24 ± 1 |  |  | 0.16 ± 0.02 | 588 (≈ 327 µg/mL) | 7800 ± 400 | 70 | NB122≥NB123>NB54>gentamicin | about 10 fold | 24 | 151 | 6100 | 0.16 ± 0.02 |

Reference: patent US11865128B2, “Aminoglycosides and uses thereof in treating genetic disorders” (Technion Research & Development Foundation Limited, priority 2010, dated 2024)
